Measurements from the NIST ThermoML archive (doi:10.1021/je5000617).
± gives the expanded uncertainty stated by the source.

Conditions: for mass density / speed of sound / viscosity: 101.33 kPa, Liquid; for viscosity: Concentric cylinders viscometry

SMILES | surface tension liquid-gas (303 K) | mass density (303 K) | speed of sound (303 K) | surface tension liquid-gas (308 K) | mass density (308 K) | speed of sound (308 K) | surface tension liquid-gas (313 K) | mass density (313 K) | speed of sound (313 K) | surface tension liquid-gas (318 K) | mass density (318 K) | speed of sound (318 K) | surface tension liquid-gas (323 K) | mass density (323 K) | speed of sound (323 K) | surface tension liquid-gas (328 K) | mass density (328 K) | speed of sound (328 K) | mass density (333 K) | speed of sound (333 K) | other results
CCCCn1cc[n+](C)c1.F[P-](F)(F)(F)(F)F [1-butyl-3-methylimidazolium hexafluorophosphate] | 45.3 ± 3.4 mN/m | 1359.4 ± 5.2 kg/m3 | 1433 ± 12 m/s | 45 ± 3.4 mN/m | 1358.2 ± 5.4 kg/m3 | 1417 ± 12 m/s | 44.7 ± 3.4 mN/m | 1353.2 ± 5.5 kg/m3 | 1408 ± 12 m/s | 44.4 ± 3.4 mN/m | 1349.8 ± 5.6 kg/m3 | 1395 ± 12 m/s | 44.1 ± 3.4 mN/m | 1346.8 ± 5.7 kg/m3 | 1384 ± 12 m/s | 43.8 ± 3.4 mN/m | 1343.8 ± 5.9 kg/m3 | 1374 ± 12 m/s | 1340.6 ± 6 kg/m3 | 1363 ± 12 m/s | viscosity (303 K): 190 ± 5 mPa·s; viscosity (308 K): 150 ± 4 mPa·s; viscosity (313 K): 132 ± 3 mPa·s; viscosity (318 K): 106 ± 3 mPa·s; viscosity (323 K): 90 ± 2 mPa·s; viscosity (328 K): 75 ± 2 mPa·s; surface tension liquid-gas (333 K): 43.5 ± 3.3 mN/m; viscosity (333 K): 58 ± 2 mPa·s
CCCCCCCCOS(=O)(=O)[O-].CCCCn1cc[n+](C)c1 [1-butyl-3-methylimidazolium octyl sulfate] | 35.7 ± 3 mN/m | 1060.2 ± 10 kg/m3 | 1461 ± 13 m/s | 35.2 ± 2.9 mN/m | 1057.8 ± 11 kg/m3 | 1450 ± 13 m/s | 34.9 ± 2.9 mN/m | 1053.2 ± 11 kg/m3 | 1430 ± 13 m/s | 34.7 ± 2.9 mN/m | 1050.8 ± 11 kg/m3 | 1419 ± 13 m/s | 34.3 ± 2.9 mN/m | 1046.4 ± 11 kg/m3 | 1406 ± 13 m/s | 33.9 ± 2.8 mN/m | 1042.2 ± 11 kg/m3 | 1391 ± 13 m/s | 1039.8 ± 11 kg/m3 | 1380 ± 13 m/s | –
CCn1cc[n+](C)c1.CS(=O)(=O)[O-] [1-ethyl-3-methylimidazolium methanesulfonate] | 47.8 ± 3.8 mN/m | 1247 ± 14 kg/m3 | 1796 ± 15 m/s | 47.4 ± 3.7 mN/m | 1243.2 ± 14 kg/m3 | 1778 ± 15 m/s | 47 ± 3.7 mN/m | 1240.2 ± 14 kg/m3 | 1764 ± 15 m/s | 46.7 ± 3.7 mN/m | 1237.6 ± 14 kg/m3 | 1752 ± 15 m/s | 46.1 ± 3.7 mN/m | 1234.4 ± 14 kg/m3 | 1738 ± 15 m/s | 45.7 ± 3.6 mN/m | 1232.4 ± 14 kg/m3 | 1727 ± 15 m/s | 1230.2 ± 14 kg/m3 | 1708 ± 15 m/s | viscosity (303 K): 120 ± 20 mPa·s; viscosity (308 K): 87 ± 20 mPa·s; viscosity (313 K): 63 ± 20 mPa·s; viscosity (318 K): 48 ± 20 mPa·s; viscosity (323 K): 37 mPa·s; viscosity (328 K): 29 mPa·s; surface tension liquid-gas (333 K): 45.4 ± 3.6 mN/m; viscosity (333 K): 20 mPa·s
